Here are results for 20 compounds from ChEMBL document CHEMBL3259766, “Design, synthesis and biological evaluation of benzylisoquinoline derivatives as multifunctional agents against Alzheimer's disease” (Bioorg Med Chem Lett, 2014).

For data set [1], the target named is Acetylcholinesterase (Electrophorus electricus, UniProt O42275). Description: Inhibition of electric eel AChE using acetylthiocholine iodide as substrate preincubated with enzyme for 6 mins followed by substrate addition by Ellman's method. A general note: DTNB colorimetry detects thiols as they appear.
Acetylcholinesterase (Electrophorus electricus, UniProt O42275), sequence (O42275 whole entry): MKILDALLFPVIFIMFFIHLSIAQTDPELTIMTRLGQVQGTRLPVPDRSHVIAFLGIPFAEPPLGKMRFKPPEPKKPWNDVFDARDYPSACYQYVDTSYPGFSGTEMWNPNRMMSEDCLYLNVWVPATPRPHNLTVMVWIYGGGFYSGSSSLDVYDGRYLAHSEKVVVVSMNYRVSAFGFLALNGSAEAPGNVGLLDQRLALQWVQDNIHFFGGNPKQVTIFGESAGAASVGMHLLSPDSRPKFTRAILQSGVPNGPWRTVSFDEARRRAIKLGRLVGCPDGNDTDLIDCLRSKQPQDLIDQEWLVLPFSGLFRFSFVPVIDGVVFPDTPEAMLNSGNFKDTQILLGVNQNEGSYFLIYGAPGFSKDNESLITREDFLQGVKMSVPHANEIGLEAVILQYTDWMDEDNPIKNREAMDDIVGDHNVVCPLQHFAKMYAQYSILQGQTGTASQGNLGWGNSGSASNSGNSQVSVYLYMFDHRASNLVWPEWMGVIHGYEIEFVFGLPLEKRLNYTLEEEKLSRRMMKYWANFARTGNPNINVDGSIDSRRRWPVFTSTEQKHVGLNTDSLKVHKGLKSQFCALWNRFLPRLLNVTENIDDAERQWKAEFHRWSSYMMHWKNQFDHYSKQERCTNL
Data set [2] deals with Cholinesterase (Equus caballus, UniProt P81908). Description: Inhibition of BuChE in equine serum using S-butyrylthiocholine iodide as substrate preincubated with enzyme for 6 mins followed by substrate addition by Ellman's method.
Cholinesterase (Equus caballus, UniProt P81908), sequence (P81908 whole entry): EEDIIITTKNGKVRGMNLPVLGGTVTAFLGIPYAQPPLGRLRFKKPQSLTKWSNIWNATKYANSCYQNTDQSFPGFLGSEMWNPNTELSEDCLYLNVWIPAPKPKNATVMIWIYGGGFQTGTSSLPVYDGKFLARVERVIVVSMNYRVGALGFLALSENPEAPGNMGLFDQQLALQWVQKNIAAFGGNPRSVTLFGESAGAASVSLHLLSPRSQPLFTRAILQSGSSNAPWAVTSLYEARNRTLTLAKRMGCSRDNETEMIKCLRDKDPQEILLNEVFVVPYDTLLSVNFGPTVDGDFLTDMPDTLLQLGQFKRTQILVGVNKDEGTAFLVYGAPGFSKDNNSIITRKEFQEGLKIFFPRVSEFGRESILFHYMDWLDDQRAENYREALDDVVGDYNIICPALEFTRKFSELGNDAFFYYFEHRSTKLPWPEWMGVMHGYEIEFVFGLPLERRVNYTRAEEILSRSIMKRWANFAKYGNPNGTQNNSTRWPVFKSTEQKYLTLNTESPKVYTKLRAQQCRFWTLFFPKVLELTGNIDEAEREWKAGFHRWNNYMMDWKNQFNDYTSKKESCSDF
Data set [3] can be described thus: Selectivity index, ratio of IC50 for BuChE in equine serum to IC50 for electric eel AChE.
The target of data set [4] is Acetylcholinesterase (Homo sapiens, UniProt P22303). The data set can be described thus: Inhibition of AChE in human erythrocytes using acetylthiocholine iodide as substrate preincubated with enzyme for 20 mins followed by substrate addition by Ellman's method. The class given is cell-based.
Acetylcholinesterase (Homo sapiens, UniProt P22303), sequence (P22303 whole entry): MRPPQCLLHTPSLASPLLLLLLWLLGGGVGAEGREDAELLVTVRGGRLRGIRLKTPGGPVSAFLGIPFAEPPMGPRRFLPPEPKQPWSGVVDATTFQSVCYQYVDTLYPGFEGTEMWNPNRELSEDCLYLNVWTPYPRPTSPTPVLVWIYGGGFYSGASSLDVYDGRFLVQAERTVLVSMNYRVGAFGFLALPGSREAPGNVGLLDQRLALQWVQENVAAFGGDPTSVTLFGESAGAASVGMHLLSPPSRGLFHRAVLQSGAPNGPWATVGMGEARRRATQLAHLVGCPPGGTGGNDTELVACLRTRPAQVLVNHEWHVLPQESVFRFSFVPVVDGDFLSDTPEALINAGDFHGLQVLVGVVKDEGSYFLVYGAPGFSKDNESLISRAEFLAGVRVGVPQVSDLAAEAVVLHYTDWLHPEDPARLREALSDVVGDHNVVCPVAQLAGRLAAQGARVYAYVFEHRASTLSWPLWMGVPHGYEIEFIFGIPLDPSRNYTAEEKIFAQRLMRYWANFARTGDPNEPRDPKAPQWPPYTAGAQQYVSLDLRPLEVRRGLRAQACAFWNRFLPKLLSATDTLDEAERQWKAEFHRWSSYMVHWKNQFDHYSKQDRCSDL
For data set [5], the target named is Cholinesterase (Homo sapiens, UniProt P06276). The data set can be described thus: Inhibition of BuChE in human serum using S-butyrylthiocholine iodide as substrate preincubated with enzyme for 20 mins followed by substrate addition by Ellman's method.
Cholinesterase (Homo sapiens, UniProt P06276), sequence (P06276 whole entry): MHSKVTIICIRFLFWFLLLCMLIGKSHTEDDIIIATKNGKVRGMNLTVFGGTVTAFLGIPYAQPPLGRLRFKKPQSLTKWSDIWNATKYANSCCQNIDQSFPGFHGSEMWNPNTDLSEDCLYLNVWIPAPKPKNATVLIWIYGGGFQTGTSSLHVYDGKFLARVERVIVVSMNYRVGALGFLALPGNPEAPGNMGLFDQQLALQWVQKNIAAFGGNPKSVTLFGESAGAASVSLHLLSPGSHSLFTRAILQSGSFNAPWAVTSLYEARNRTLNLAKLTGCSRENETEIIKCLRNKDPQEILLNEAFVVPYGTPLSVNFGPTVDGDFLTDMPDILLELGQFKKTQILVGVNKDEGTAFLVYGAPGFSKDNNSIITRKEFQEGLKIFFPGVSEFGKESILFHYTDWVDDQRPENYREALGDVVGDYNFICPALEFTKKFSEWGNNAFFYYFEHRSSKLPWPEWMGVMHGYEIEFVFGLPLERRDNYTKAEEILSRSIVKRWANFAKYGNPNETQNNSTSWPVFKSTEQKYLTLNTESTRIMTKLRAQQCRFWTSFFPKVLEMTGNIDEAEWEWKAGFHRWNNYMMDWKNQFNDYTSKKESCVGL
The species named for the next data set is Homo sapiens. The data set can be described thus: Selectivity index, ratio of IC50 for BuChE in human serum to IC50 for AChE in human erythorcytes. In kind it is cell-based.
Data set [6] concerns the target Amyloid-beta precursor protein (Homo sapiens) (UniProt P05067). The data set can be described thus: Inhibition of amyloid beta (1 to 42) (unknown origin) self-aggregation at 20 uM after 46 to 48 hrs by thioflavin T based fluorometric assay.
Data set [7] in a line: Cytotoxicity against human SH-SY5Y cells assessed as cell viability at 0.1 uM after 24 hrs by MTT assay. In kind it is cell-based. Particulars: read-out: Activity. In general terms: Tetrazolium dyes change colour on reduction, which living cells bring about.
Data set [8] in a line: Cytotoxicity against human SH-SY5Y cells assessed as cell viability at 0.5 uM after 24 hrs by MTT assay. Particulars: read-out: Activity. In kind it is cell-based.
Data set [9] is described as follows: Cytotoxicity against human SH-SY5Y cells assessed as cell viability at 1 uM after 24 hrs by MTT assay. In kind it is cell-based. Particulars: read-out: Activity.
Data set [10] is described as follows: Cytotoxicity against human SH-SY5Y cells assessed as cell viability at 2 uM after 24 hrs by MTT assay. Particulars: read-out: Activity. In kind it is cell-based.
Data set [11] is described as follows: Cytotoxicity against human SH-SY5Y cells assessed as cell viability at 5 uM after 24 hrs by MTT assay. In kind it is cell-based. The note with it: read-out: Activity.
Data set [12] in a line: Cytotoxicity against human SH-SY5Y cells assessed as cell viability at 10 uM after 24 hrs by MTT assay. The note with it: read-out: Activity. The class given is cell-based.

Amyloid-beta precursor protein (Homo sapiens), sequence (P05067 whole entry): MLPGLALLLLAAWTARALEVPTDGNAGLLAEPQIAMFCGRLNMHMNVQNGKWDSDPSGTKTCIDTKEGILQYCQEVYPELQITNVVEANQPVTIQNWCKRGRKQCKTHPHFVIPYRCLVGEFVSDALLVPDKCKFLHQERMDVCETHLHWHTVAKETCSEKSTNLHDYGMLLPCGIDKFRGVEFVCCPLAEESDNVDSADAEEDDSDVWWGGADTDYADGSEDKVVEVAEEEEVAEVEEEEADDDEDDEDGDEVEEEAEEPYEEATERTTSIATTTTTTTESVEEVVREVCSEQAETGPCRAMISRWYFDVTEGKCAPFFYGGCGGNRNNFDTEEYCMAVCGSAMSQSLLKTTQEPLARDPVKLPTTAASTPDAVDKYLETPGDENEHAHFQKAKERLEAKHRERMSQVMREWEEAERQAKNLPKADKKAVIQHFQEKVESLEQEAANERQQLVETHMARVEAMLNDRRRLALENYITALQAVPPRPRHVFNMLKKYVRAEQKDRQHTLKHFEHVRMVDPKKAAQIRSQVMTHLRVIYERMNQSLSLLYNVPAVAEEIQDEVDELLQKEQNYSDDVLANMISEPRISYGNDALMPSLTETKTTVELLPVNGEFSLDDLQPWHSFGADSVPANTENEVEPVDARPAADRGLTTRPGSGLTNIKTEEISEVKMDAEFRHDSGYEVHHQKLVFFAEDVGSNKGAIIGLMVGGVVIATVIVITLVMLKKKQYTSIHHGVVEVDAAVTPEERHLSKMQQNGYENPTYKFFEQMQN

By IC50 is commonly meant the concentration that inhibits the measured activity by half. A lower IC50 goes with greater potency. By inhibition is commonly meant the percentage by which the read-out fell short of the control. A higher inhibition goes with a response far below the control. `COc1cc2c(cc1OC)C(Cc1ccc(OCCCCCCN3CCCC3)cc1)NCC2` (configuration not stated): the IC50 amounted to 1.28 µM against Acetylcholinesterase [1], 2.34 µM at Cholinesterase [2], 2.98 µM at Acetylcholinesterase [4] and 2.27 µM against Cholinesterase [5]. In addition, the values for the Ratio IC50 (in [3]; in the data set filed under Homo sapiens) were 2.05 and 0.76, respectively. The compound further had an inhibition in data set [6] of 69%.
Take `COc1cc2c(cc1OC)C(Cc1ccc(OCCCCCCN3CCCCC3C)cc1)NCC2` (configuration not stated): the IC50 at Acetylcholinesterase [1] stood at 0.95 µM; against Cholinesterase [2] it was 3.13 µM; against Acetylcholinesterase [4], 2.2 µM; against Cholinesterase [5], 5.83 µM. Further, the Ratio IC50 in [3] was 3.29; in the data set listed under Homo sapiens, 1.49. In data set [6], this compound returned an inhibition of 78.4%. The viability at 24 h, 0.1 µM in data set [7] turned out to be 96.8%. Moreover, the viability at 24 h, 0.5 µM in data set [8] was 98.8%. In addition, the viability at 24 h, 1 µM in [9] was 96.8%. Also, the viability at 24 h, 2 µM in [10] came to 96.1%. Besides, the viability at 24 h, 5 µM in data set [11] worked out at 94.5%. In data set [12], the viability at 24 h, 10 µM amounted to 91.1%.
For the compound `CCN(CC)CCCCCCOc1ccc(CC2NCCc3cc(OC)c(OC)cc32)cc1` (configuration not stated), the IC50 on Acetylcholinesterase [1] turned out to be 2.28 µM; against Cholinesterase [2] it was 4.95 µM; on Acetylcholinesterase [4], 4.99 µM; against Cholinesterase [5] it was 16.7 µM. Moreover, the values for the Ratio IC50 (in data set [3]; in the data set filed under Homo sapiens) were 2.17 and 3.35, respectively. This compound also returned an inhibition in data set [6] of 56.4%.
On to `CCN(CC)CCCCOc1ccc(CC2NCCc3cc(OC)c(OC)cc32)cc1` (configuration not stated), for which the figures for the IC50 against Acetylcholinesterase [1] and against Cholinesterase [2] were 7.58 µM and 15.3 µM, respectively. Moreover, the Ratio IC50 in data set [3] amounted to 2.02. Besides, the inhibition in data set [6] amounted to 47.3%.
Turning to `COc1cc2c(cc1OC)C(Cc1ccc(OCCCCCCN3CCC(O)(Cc4ccccc4)CC3)cc1)NCC2` (configuration not stated), the IC50 at Acetylcholinesterase [1] stood at 41.7 µM; against Cholinesterase [2], 12.8 µM; at Acetylcholinesterase [4], 39.6 µM; against Cholinesterase [5], 15.9 µM. Besides, the Ratio IC50 in [3] amounted to 0.31; in the data set listed under Homo sapiens, 0.4. Further, the inhibition in data set [6] was determined as 62.7%.
In the case of `CCN(CC)CCCCCCCCOc1ccc(CC2NCCc3cc(OC)c(OC)cc32)cc1` (configuration not stated), the half-inhibitory concentration (IC50) on Acetylcholinesterase [1] came to 6.33 µM; on Cholinesterase [2], 20.1 µM. Further, in data set [3], the Ratio IC50 worked out at 3.17. This compound registered an inhibition in data set [6] of 39.6%.
As for `COc1cc2c(cc1OC)C(Cc1ccc(O)cc1)NCC2` (configuration not stated), the half-maximal inhibitory concentration (IC50) at Acetylcholinesterase [1] was above 100 µM; against Cholinesterase [2] it was 39.7 µM; against Acetylcholinesterase [4], above 100 µM; against Cholinesterase [5] it was 46.8 µM. The compound further returned an inhibition in [6] of 36%.
Regarding `COc1cc2c(cc1OC)C(Cc1ccc(OCCCCCCN3CCC(c4ccccc4)CC3)cc1)NCC2` (configuration not stated), the IC50 against Acetylcholinesterase [1] stood at 6.69 µM; at Cholinesterase [2], 7.99 µM; against Acetylcholinesterase [4] it was 9.33 µM; against Cholinesterase [5] it was 9.29 µM. The Ratio IC50 in data set [3] was 1.19. In data set [6], this compound returned an inhibition of 61.2%.
For the compound `COc1cc2c(cc1OC)C(Cc1ccc(OCCCCCCN3CCCCC3)cc1)NCC2` (configuration not stated), the IC50 against Acetylcholinesterase [1] came to 1.14 µM; against Cholinesterase [2] it was 2.51 µM; against Acetylcholinesterase [4], 2.14 µM; on Cholinesterase [5] it was 3.25 µM. Moreover, the values for the Ratio IC50 (in [3]; in the data set listed under Homo sapiens) were 1.96 and 1.69, respectively. The compound also came in with an inhibition in data set [6] of 76.4%.
Consider `CCN(CC)CCCOc1ccc(CC2NCCc3cc(OC)c(OC)cc32)cc1` (configuration not stated), for which the results for the IC50 at Acetylcholinesterase [1] and against Cholinesterase [2] were 13.2 µM and 20.8 µM, respectively. The Ratio IC50 in data set [3] is 1.57. Besides, the inhibition in [6] stood at 41.1%.
`COc1cc2c(cc1OC)C(Cc1ccc(OCCCCCCN3CCOCC3)cc1)NCC2` (configuration not stated): the IC50 at Acetylcholinesterase [1] is 28.6 µM; against Cholinesterase [2], 13 µM; on Acetylcholinesterase [4], 35.5 µM; at Cholinesterase [5] it was 10.6 µM. Also, the Ratio IC50 in data set [3] worked out at 0.45; in the data set filed under Homo sapiens it was 0.29. The same compound showed an inhibition in [6] of 57.4%.
Take `COc1cc2c(cc1OC)C(Cc1ccc(OCCCCCCN3CCCC3C)cc1)NCC2` (configuration not stated): the half-inhibitory concentration (IC50) against Acetylcholinesterase [1] came out at 1.34 µM; at Cholinesterase [2], 3.35 µM; on Acetylcholinesterase [4], 4.5 µM; on Cholinesterase [5] it was 6.42 µM. The Ratio IC50 turned out to be 2.5 in data set [3] and 1.43 in the data set listed under Homo sapiens. In [6], the inhibition stood at 72.3%.
As to `CCN(CC)CCCCCCCOc1ccc(CC2NCCc3cc(OC)c(OC)cc32)cc1` (configuration not stated), the IC50 against Acetylcholinesterase [1] was 4.67 µM; at Cholinesterase [2], 9.13 µM. For the same compound, in data set [3], the Ratio IC50 turned out to be 1.96. Besides, the inhibition in [6] amounted to 43.9%.
Regarding `COc1cc2c(cc1OC)C(Cc1ccc(OCCCCCCN3CCN(Cc4ccccc4)CC3)cc1)NCC2` (configuration not stated), the IC50 turned out to be 53.5 µM against Acetylcholinesterase [1], 10.5 µM on Cholinesterase [2], 5.59 µM against Acetylcholinesterase [4] and 21.7 µM on Cholinesterase [5]. Also, the Ratio IC50 amounted to 0.2 in data set [3] and 3.88 in the data set filed under Homo sapiens. Also, in data set [6], the inhibition is 61.4%.
Consider `COc1cc2c(cc1OC)C(Cc1ccc(OCCCCCCN3CCN(c4ccccc4)CC3)cc1)NCC2` (configuration not stated), for which the 50% inhibitory concentration (IC50) is 17.1 µM against Acetylcholinesterase [1], 8.78 µM against Cholinesterase [2], 16.3 µM at Acetylcholinesterase [4] and 12.9 µM on Cholinesterase [5]. Besides, the Ratio IC50 in data set [3] stood at 0.51. The compound also came in with an inhibition in data set [6] of 65.8%.
Regarding `COc1cc2c(cc1OC)C(Cc1ccc(OCCCCCCN(C)C)cc1)NCC2` (configuration not stated), the IC50 against Acetylcholinesterase [1] turned out to be 3.14 µM; at Cholinesterase [2], 8.65 µM; at Acetylcholinesterase [4], 7.13 µM; against Cholinesterase [5], 3.43 µM. In addition, the Ratio IC50 turned out to be 2.75 in data set [3] and 0.48 in the data set filed under Homo sapiens. Further, the inhibition in data set [6] was 55.3%.
Take `CCCCN(CCCC)CCCCCCOc1ccc(CC2NCCc3cc(OC)c(OC)cc32)cc1` (configuration not stated): the concentration for half-maximal inhibition (IC50) at Acetylcholinesterase [1] turned out to be 3.43 µM; at Cholinesterase [2], 3.46 µM; against Acetylcholinesterase [4] it was 3.85 µM; against Cholinesterase [5], 6.02 µM. In addition, the Ratio IC50 was 1.01 in data set [3] and 1.56 in the data set filed under Homo sapiens. This compound also registered an inhibition in data set [6] of 51.4%.
Take `CCCN(CCC)CCCCCCOc1ccc(CC2NCCc3cc(OC)c(OC)cc32)cc1` (configuration not stated): the IC50 on Acetylcholinesterase [1] worked out at 3.01 µM; at Cholinesterase [2] it was 4.32 µM; against Acetylcholinesterase [4], 3.46 µM; against Cholinesterase [5] it was 11.2 µM. Moreover, the results for the Ratio IC50 (in data set [3]; in the data set listed under Homo sapiens) were 1.44 and 3.23, respectively. The inhibition in data set [6] was found to be 51.2%.
In the case of `CCN(CC)CCCCCOc1ccc(CC2NCCc3cc(OC)c(OC)cc32)cc1` (configuration not stated), the 50% inhibitory concentration (IC50) at Acetylcholinesterase [1] was 7.02 µM; at Cholinesterase [2], 10.3 µM. For the same compound, the Ratio IC50 in [3] turned out to be 1.46. The compound further came in with an inhibition in data set [6] of 34.3%.
For `COc1cc2c(cc1OC)C(Cc1ccc(OCCCCCCN3CCC(O)CC3)cc1)NCC2` (configuration not stated), the concentration for half-maximal inhibition (IC50) at Acetylcholinesterase [1] is 13.3 µM; at Cholinesterase [2], 14.2 µM; against Acetylcholinesterase [4], 9.59 µM; against Cholinesterase [5], 23.7 µM. Moreover, the Ratio IC50 in data set [3] worked out at 1.07; in the data set listed under Homo sapiens it was 2.47. In [6], the inhibition was determined as 62.1%.
